Test [1] has as its target T1, strychnine-insensitive glycine binding site on the NMDA receptor (Rattus norvegicus, UniProt P35439).
T1 construct: from tissue; host or cells: rat cerebral cortex, crude synaptic (buffy coat) membranes
As to the kind of experiment: [3H]5,7-DCKA binding to rat cortical membranes. As to conditions: 20 nM [3H]5,7-DCKA. Here is the method: Male Sprague-Dawley rats were killed, their brains removed, and their cerebral cortices dissected and binding of [^3H]5,7-dichlorokynurenate ([^3H]5,7-DCKA) assayed. [^3H]5,7-DCKA binding assays were performed in crude synaptic membranes prepared by a modification of the method of Jones, et al., J. Pharmacol. Methods, 21 161–168 (1989) the relevant disclosures of which are incorporated herein by reference. The pelleted “buffy coat”fraction was obtained by centrifugation and frozen at about −80° C. for at least 18 hours. On the day that the binding assays were performed, the pelleted membranes were resuspended in 50 mM HEPES-KOH buffer (pH 7.8) containing 0.08% TRITON® X-100. After stirring for about 30 min at about 4° C., the membranes were pelleted by recentrifugation and then washed twice by resuspension in buffer and centrifugation.
Binding assays were performed in 0.5 ml volume using 150–200 μg of tissue, 20 nM [^3H]5,7-DCKA and 3–300 μM DCUKA or MeO-DCUKA or 1–100 μM DCUK-OMe (all concentrations are final concentrations in 0.6% dimethyl sulfoxide (DMSO)). Incubations were performed for about 45 min at about 4° C. followed by termination by centrifugation. Bound radioactivity was quantitated by liquid scintillation spectroscopy. Non-specific binding was defined with 1 mM glycine.

Test [2] has as its target voltage-sensitive sodium channels. Nature of the test: [3H]BTX binding to rat cortical synaptosomes. As to conditions: non-depolarizing conditions, none = no displacement at 100 μM, read-out: IC50 (μM) [3H]BTX binding.
The target of test [3] is T2, NMDA receptor ion channel (Rattus norvegicus, UniProt P35439).
T2 construct: from tissue; host or cells: rat cerebral cortex, crude synaptic (buffy coat) membranes
Nature of the test: [3H]dizocilpine binding to rat cortical membranes. As to conditions: no exogenous glycine; 100 or 300 μM DCUKA, 30 or 100 μM DCUK-OMe; attenuated by 1 μM glycine. Here is the method:
[^3H]Dizocilpine (MK-801) binding assays were performed in a volume of 1 ml containing 100–150 μg of tissue, 5 nM [^3H]dizocilpine, 10 μM L-glutamate, 30 μM MgSO4, and 100 or 300 μM DCUKA or 30 or 100 μM DCUK-OMe, in 10 mM HEPES-KOH buffer (pH 7.4 at 23° C.). Incubations were for 30 minutes at room temperature. The reaction mixtures were filtered over GF/B filters presoaked in 0.1% polyethyleneimine. Bound radioactivity was quantitated by liquid scintillation spectroscopy. Non-specific binding was defined with 20 μM dizocilpine. Under these conditions, [^3H]dizocilpine binding can be used as a measure of the activation of the NMDA receptor ion channel by glycine. See, for example, Wong, E. H. F., et al.,“ GLYCINE MODULATES [^3H]MK-801BINDING TO THE NMDA RECEPTOR IN RAT BRAIN.” Eur. J. Pharmacol., 142 487–488 (1987).
The results obtained are plotted in FIG. 2 where open bars indicate no glycine added and hatched bars indicate 1 μM glycine added to the incubation. Data were statistically analyzed by 2-way analysis of variance (ANOVA) followed by Tukey test. In FIG. 2, * denotes P<0.05 compared to the zero concentration of DCUKA or DCUK-OMe within a given glycine condition, while ** denotes P<0.05 compared to the 0 glycine condition at a given concentration of DCUKA or DCUK-OMe. […]

Test [4] has as its system audiogenic seizures in DBA/2J mice. Nature of the test: Audiogenic seizures. It counts as in vivo. As to conditions: 100 or 500 mg/kg, about 90 minutes before stimulus. Here is the method:
Male DBA/2J mice (20–22 days old; 8–12 g) were used to evaluate the effects of DCUK-OMe in an animal model of partial seizures. A description of this test for audiogenic seizures can be found in Engstrom, F. L., et al., “SEIZURE SUSCEPTIBILITY IN DBA AND C57 MICE: THE EFFECTS OF VARIOUS CONVULSANTS,” Epilepsia., 29 389–395 (1988), the relevant disclosures of which are incorporated herein by reference. Mice were injected with either vehicle (5% Tween-80, 20% Intralipid) or 100 mg/kg or 500 mg/kg DCUK-OMe suspended in the vehicle about 90 minutes before being placed into a testing chamber having a size of about 6 inches (about 15.2 cm) diameter×about 20 inches (about 50.8 cm) height enclosed in a sound-attenuated box. After a 15–20 second habituation period, a high-intensity auditory stimulus (ringing doorbell, 12–16 kHz, 109 db) was activated for 30 seconds or until tonic hindlimb extension occurred. The seizure response in these mice was characterized by a progression of a wild running behavior, followed by loss of righting and clonus of the forelimbs, followed by tonic hindlimb extension, and finally respiratory arrest. The number of mice showing each response was recorded. […] Data were analyzed by the Fisher Exact Test. In FIG. 8, * denotes P<0.05 compared to vehicle injected mice.

Turning to `O=C(O)c1cc(NC(=O)N(c2ccccc2)c2ccccc2)c2c(Cl)cc(Cl)cc2n1` [DCUKA, (N,N-diphenyl)-4-ureido-5,7-dichloro-2-carboxy-quinoline], the IC50 (usually the concentration that gives 50% inhibition) in test [1] is 22 µM; in test [2], 76 µM. The “effect on [3H]dizocilpine binding” value in test [3] was “concentration-related decrease in [^3H]dizocilpine binding”.

With `COC(=O)c1cc(NC(=O)N(c2ccccc2)c2ccccc2)c2c(Cl)cc(Cl)cc2n1` [DCUK-OMe, (N,N-diphenyl)-4-ureido-5,7-dichloro-2-carboxy-quinoline methyl ester], the figures for the IC50 in test [1] and in test [2] were 5 µM and 25 µM, respectively. Further, in test [3], the “effect on [3H]dizocilpine binding” value was “concentration-related decrease in [^3H]dizocilpine binding”. In addition, the “frequency of clonic audiogenic seizures” value in test [4] is listed as “suppression of audiogenic seizures”.

These data come from patent publication US6962930B1, “Compounds, compositions and method suitable for amelioration of withdrawal syndromes and withdrawal-induced brain damage” (Lohocla Research Corporation, priority 1997, dated 2005).
